Measurements reported in patent US4218448A, “Antihypertensive polyfluorohydroxyisopropyl bicyclic and tricyclic carbostyrils” (E. I. Du Pont de Nemours and Company, priority 1977, dated 1980).
Like-named read-outs stand apart in the source and are kept apart here.

Tested on: DOCA hypertensive rats
Test: Antihypertensive activity in DOCA hypertensive rats (oral), systolic arterial blood pressure
Assay type: in vivo
Settings: Rattus norvegicus, 1.5 h, read-out: ED50
Procedure: Rats are made hypertensive by subcutaneous implantation of pellets of desoxycorticosterone acetate (DOCA) and by giving saline solution to drink essentially according to the method described by Sturtevant [Annals of Internal Medicine, 49, 1281 (1958)]. Graded dose levels of each compound are administered orally to groups of 8 hypertensive rats. The compound is prepared in an aqueous polyvinyl alcohol/acacia vehicle and administered at a volume to body weight ratio of 5.0 ml/kg. Sixteen hypertensive rats receiving the aqueous vehicle by the same route serve as controls for each test. At various intervals of time after treatment, usually 90 minutes, the systolic arterial blood pressure of each rat is determined by a modification of the microphone-manometer technique [Friedman, M. and Freed, S. C., Proc. Soc. Exp. Biol, and Med., 70, 670 (1949)]. […]

[1] = oral, groups of 8 DOCA hypertensive rats, usually 90 minutes after treatment, dose producing 30 mm Hg reduction in blood pressure vs controls (Effective Dose 30, ED30)

SMILES | ED (30 mm Hg) [1] | ED (30 mm Hg) (po)
Cc1cc(=O)n2c3c(cc(C(O)(C(F)(F)F)C(F)(F)F)cc13)C(C)CC2 (centres unmarked) | 3.6 mg/kg | 
Cc1cc(=O)n2c3c(cc(C(O)(C(F)(F)F)C(F)(F)F)cc13)C(C)C2 (centres unmarked) | 0.6 mg/kg | 
Cc1cc(=O)n2c3c(cc(C(O)(C(F)(F)F)C(F)(F)F)cc13)CCC2 [Example 1, 2,3-dihydro-9-[2,2,2-trifluoro-1-hydroxy-1-(trifluoromethyl)ethyl]-7-methyl-1H,5H-benzo[ij]quinolizin-5-one] | 1 mg/kg | 
Cc1cc(=O)n2c3c(cc(C(O)(C(F)(F)F)C(F)(F)F)cc13)CCC2C (centres unmarked) [Example 2, 2,3-dihydro-3,7-dimethyl-9-[2,2,2-trifluoro-1-hydroxy-1-(trifluoromethyl)ethyl]-1H,5H-benzo-[ij]quinolizin-5-one] | 0.66 mg/kg | 
CCc1cc(=O)n2c3c(cc(C(O)(C(F)(F)F)C(F)(F)F)cc13)CCC2 [Example 8, 2,3-dihydro-7-ethyl-9-[2,2,2-trifluoro-1-hydroxy-1-(trifluoromethyl)-ethyl]-1H,5H-benzo[ij]quinolizin-5-one] | 0.27 mg/kg | 
Cc1c(Cl)c(=O)n2c3c(cc(C(O)(C(F)(F)F)C(F)(F)F)cc13)CCC2 [Example 9, 6-chloro-2,3-dihydro-9-[2,2,2-trifluoro-1-hydroxy-1-(trifluoromethyl)ethyl]-7-methyl-1H,5H-benzo[ij]quinolizin-5-one] |  | 1.6 mg/kg
Cc1c(Br)c(=O)n2c3c(cc(C(O)(C(F)(F)F)C(F)(F)F)cc13)CCC2 [Example 10] | 9 mg/kg | 
Cc1cc(=O)n2c3c(cc(C(O)(C(F)(F)F)C(F)(F)F)cc13)CC2 [Example 11, 1,2-dihydro-8-[2,2,2-trifluoro-1-hydroxy-1-(trifluoromethyl)ethyl]-6-methyl-4H-pyrrolo[3,2,1-ij]quinolin-4-one] | 0.13 mg/kg | 
Cc1c([N+](=O)[O-])c(=O)n2c3c(cc(C(O)(C(F)(F)F)C(F)(F)F)cc13)CC2 [Example 12, 1,2-dihydro-8-[2,2,2-trifluoro-1-hydroxy-1-(trifluoromethyl)-ethyl]-6-methyl-5-nitro-4H-pyrrolo[3,2,1-ij]quinolin-4-one] | 1.5 mg/kg | 
Cc1c(N)c(=O)n2c3c(cc(C(O)(C(F)(F)F)C(F)(F)F)cc13)CC2 [Example 13, 1,2-dihydro-8-[2,2,2-trifluoro-1-hydroxy-1-(trifluoromethyl)-ethyl]-5-amino-6-methyl-4H-pyrrolo[3,2,1-ij]quinolin-4-one] | 5.4 mg/kg | 
Cc1cc(=O)n2c3c(cc(C(O)(C(F)(F)F)C(F)(F)F)cc13)CC2C (centres unmarked) [Example 14, 1,2-dihydro-2,6-dimethyl-8-[2,2,2-trifluoro-1-hydroxy-1-(trifluoromethyl)-ethyl]-4H-pyrrolo[3,2,1-ij]quinolin-4-one] | 0.047 mg/kg | 
CCc1cc(=O)n2c3c(cc(C(O)(C(F)(F)F)C(F)(F)F)cc13)CC2 [Example 22, 1,2-dihydro-6-ethyl-8-[2,2,2-trifluoro-1-hydroxy-1-(trifluoromethyl)ethyl]-4H-pyrrolo[3,2,1-ij]quinolin-4-one] | 0.11 mg/kg | 
Cc1cc(=O)n2c3c(cc(C(O)(C(F)(F)F)C(F)(F)F)cc13)CCCC2 [Example 23, 5,6,7,8-tetrahydro-10-[2,2,2-trifluoro-1-hydroxy-1-(trifluoromethyl)ethyl]-1-methyl-3H-azepino[3,2,1-ij]quinolin-3-one] | 1.3 mg/kg | 
Cc1cc(=O)[nH]c2ccc(C(O)(C(F)(F)F)C(F)(F)F)cc12 [Example 24, 6-(2,2,2-trifluoro-1-hydroxy-1-(trifluoromethyl)ethyl)-4-methyl-2(1H)-quinolinone] | 4.1 mg/kg | 
Cc1cc(=O)[nH]c2c(C)cc(C(O)(C(F)(F)F)C(F)(F)F)cc12 [Example 25] | 3.7 mg/kg | 
CCc1cc(C(O)(C(F)(F)F)C(F)(F)F)cc2c(C)cc(=O)[nH]c12 [Example 26] | 1.3 mg/kg | 
CCn1c(=O)cc(C)c2cc(C(O)(C(F)(F)F)C(F)(F)F)ccc21 [Example 31, 1-ethyl-6-[2,2,2-trifluoro-1-hydroxy-1-(trifluoromethyl)ethyl]-4-methyl-2(1H)-quinolinone] | 1.2 mg/kg | 
Cc1cc(=O)n(C)c2ccc(C(O)(C(F)(F)F)C(F)(F)F)cc12 [Example 32] | 0.4 mg/kg | 
CCCCn1c(=O)cc(C)c2cc(C(O)(C(F)(F)F)C(F)(F)F)ccc21 [Example 34] | 5.2 mg/kg | 
O=c1ccc2cc(C(O)(C(F)(F)F)C(F)(F)F)cc3c2n1CCC3 [Example 42, 2,3-dihydro-9-[2,2,2-trifluoro-1-hydroxy-1-(trifluoromethyl)ethyl]-1H,5H-benzo[ij]quinolizin-5-one] | 3 to 9 mg/kg | 
CCC(=O)OC(c1cc2c3c(c1)c(C)cc(=O)n3CC2)(C(F)(F)F)C(F)(F)F [Example 43, 1,2-dihydro-8-[2,2,2-trifluoro-1-hydroxy-1-(tri-fluoromethyl)ethyl]-6-methyl-4H-pyrrolo[3,2,1-ij]quinolin-4-one propanoate] | 0.22 mg/kg | 
CC(=O)OC(c1cc2c3c(c1)c(C)cc(=O)n3CC2)(C(F)(F)F)C(F)(F)F [Example 44, 1,2-dihydro-8-[2,2,2-trifluoro1-hydroxy-1-(trifluoromethyl)ethyl]-6-methyl-4H-pyrrolo[3,2,1-ij]quinolin-4-one acetate] | 0.2 mg/kg | 
CCCCCCCCCCCC(=O)OC(c1cc2c3c(c1)c(C)cc(=O)n3CC2)(C(F)(F)F)C(F)(F)F [Example 45, 1,2-dihydro-8-[2,2,2-trifluoro-1-hydroxy-1-(trifluoromethyl)ethyl]-6-methyl-4H-pyrrolo[3,2,1-ij]quinolin-4-one laurate] | 0.12 mg/kg | 
Cc1cc(=O)n2c3c(cc(C(OC(=O)c4ccccc4)(C(F)(F)F)C(F)(F)F)cc13)CC2 [Example 46] | 0.25 mg/kg | 
COC(c1cc2c3c(c1)c(C)cc(=O)n3CC2)(C(F)(F)F)C(F)(F)F [Example 50, 1,2-dihydro-8-[2,2,2-trifluoro-1-methoxy-1-(trifluoromethyl)-ethyl]-6-methyl-4H-pyrrolo[3,2,1-ij]quinolin-4-one] | 0.35 mg/kg | 
CCOC(c1cc2c3c(c1)c(C)cc(=O)n3CC2)(C(F)(F)F)C(F)(F)F [Example 51] | 0.5 mg/kg | 
Cc1cc(=O)n2c3c(cc(C(O)(C(F)F)C(F)(F)F)cc13)CC2 (centres unmarked) [Example 52, 1,2-dihydro-8-[2,2,-difluoro-1-hydroxy-1-(trifluoromethyl)ethyl]-6-methyl-4H-pyrrolo[3,2,1-ij]quinolin-4-one] | 0.075 mg/kg | 
Cc1cc(=O)n2c3c(cc(C(O)(C(F)(F)F)C(F)(F)Cl)cc13)CC2 (centres unmarked) [Example 53, 1,2-dihydro-8 [2-chloro-2,2-difluoro-1-hydroxy-1-(trifluoromethyl)ethyl]-6-methyl-4H-pyrrolo[3,-2,1-ij]quinolin-4-one] | 0.07 mg/kg | 
Cc1cc(=O)n2c3c(cc(C(O)(C(F)F)C(F)F)cc13)CC2 [Example 54] | 1.2 mg/kg | 
